Reference: US20170143712A1, “Methods of Treating Cancers, Immune and Autoimmune Diseases, and Inflammatory Diseases Based on BTK Occupancy and BTK Resynthesis Rate” (Acerta Pharma B.V., priority 2014, published 2017)
Entries after “also recorded” stand apart in the source; their conditions may differ.

What was measured:
[1] = test system: systemic lupus erythematosus (SLE) in MRL/MpJFASlpr mice; test: MRL/MpJFASlpr mouse model of systemic lupus erythematosus; format: in vivo; details: for Histopathology Glomerulus Diameter / Histopathology Summed Score / Kidney (paired) Weight (g) / Change in Body Weight (g) wk 1-12 / Histopathology Interstitial Inflammation: mean (SE); for absolute kidney weights, reduction vs Vehicle Disease Controls / absolute mesenteric lymph node weights, reduction vs Vehicle Disease Controls: term animals
Experimental: A study designed to determine the effects of candidate anti-inflammatory agent Formula (II) in oral (PO), daily (QD) administration in the treatment of systemic lupus erythematosus (SLE) in MRL/MpJFASlpr mice. Formula (II) was preformulated in vehicle (0.4% HPMC, 0.1% Tween 80, with simethicone for antifoaming). The female MRL/MpJFASlpr mice were dosed with vehicle or Formula (II) (1, 5, or 25 mg/kg) daily (QD) by the oral (PO) route dosing, or they were dosed QD by the intraperitoneal (IP) route with the reference compound cyclophosphamide (15 mg/kg). Prior to dosing, the candidate anti-inflammatory agent was reconstituted either by vortexing or stirring. […]
Female MRL/MpJFASlpr mice (n=50) that were 8-9 weeks old and weighed approximately 28-41 grams (mean 34 g) at enrollment (mouse age approx. 12 weeks) were obtained from The Jackson Laboratory, Bar Harbor, Me. (stock number 000485). These mice were housed 3-5/cage in shoe-box polycarbonate cages with wire tops, wood chip bedding, and suspended food and water bottles. No concurrent medications were given.
When they were 12 weeks old (study day 0), the female MRL/MpJFASlpr mice (n=10/group) were randomized by body weight into 5 groups as shown above. Treatment was initiated after randomization and continued for […] (mouse age 12 weeks to 23 weeks).
Starting on study week one, and then every week thereafter urine from each animal was tested for proteinuria using the Clinitech Multistick test strip (Bayer). The animals were also observed daily for significant clinical signs, moribundity and mortality. […] Efficacy evaluation was based on animal body weights, proteinuria analysis, lymphadenopathy scores, skin lesion scores, organ weights, anti-dsDNA titers, clinical chemistry parameters, and histopathologic evaluation of the kidneys.
Any animals showing signs of morbundity were terminated immediately. At necropsy (3 h post-dose, mouse age 23 weeks), all remaining animals were anesthetized with Isoflurane and bled via cardiac puncture for serum and plasma (Li Heparin). The animals were bled to exsanguinate then euthanized by cervical dislocation. Spleens, kidneys (paired), and lymph nodes were collected and weighed. Kidneys were collected into 10% neutral buffered formalin (NBF). Spleens were placed in RPMI 1% FBS media for splenocyte isolation. Serum samples for potential clinical chemistry analysis were stored frozen at −80° C. until shipment to Antech Diagnostics. Plasma samples were stored frozen at −80° C. for mouse antidsDNA IgG analysis by ELISA.
Blood samples were drawn via cardiac puncture from Isoflurane anesthetized animals into serum separator microtainer tubes for clinical chemistries. Samples were shipped to Antech Diagnostics for analysis.

[2] = test system: anti-KLH IgM and IgG antibody response; test: T cell dependent antibody response (TDAR) to KLH in rats; format: in vivo, rat; details: 1, 2.5 and 5 mg/kg/day oral gavage, KLH on Day 50
Experimental: Rats were treated with oral gavage administration of vehicle or Formula (II) at doses of 1, 2.5 and 5 mg/kg/day for 91 days. Sixteen rats per gender were evaluated for development of T cell dependent antibody response (TDAR), with primary immunization on Day 50 with keyhole limpet hemocyanin (KLH) by subcutaneous injection. Dosing continued and on Days 57, 64, and 71, blood samples were collected via the sublingual vein into tubes without anticoagulant and allowed to clot at room temperature for at least 30 minutes, then the serum was divided into 4 approximately equal aliquots and stored frozen at approximately −60 to −90° C. Anti-KLH IgM and IgG antibody levels were determined using an enzyme-linked immunosorbent assay (ELISA). FIG. 41A, FIG. 41B, FIG. 41C, FIG. 41D, FIG. 41E, FIG. 41F, FIG. 42A, FIG. 42B, FIG. 42C, FIG. 42D, FIG. 42E, and FIG. 42F illustrate the trends in anti-KLH antibody responses among male and female rats.

BTK = BTK (Homo sapiens, UniProt Q06187); test: Intracellular total BTK protein in peripheral blood B lymphocytes of healthy volunteers (flow cytometry); format: in vivo
Chain of BTK (Q06187 whole entry): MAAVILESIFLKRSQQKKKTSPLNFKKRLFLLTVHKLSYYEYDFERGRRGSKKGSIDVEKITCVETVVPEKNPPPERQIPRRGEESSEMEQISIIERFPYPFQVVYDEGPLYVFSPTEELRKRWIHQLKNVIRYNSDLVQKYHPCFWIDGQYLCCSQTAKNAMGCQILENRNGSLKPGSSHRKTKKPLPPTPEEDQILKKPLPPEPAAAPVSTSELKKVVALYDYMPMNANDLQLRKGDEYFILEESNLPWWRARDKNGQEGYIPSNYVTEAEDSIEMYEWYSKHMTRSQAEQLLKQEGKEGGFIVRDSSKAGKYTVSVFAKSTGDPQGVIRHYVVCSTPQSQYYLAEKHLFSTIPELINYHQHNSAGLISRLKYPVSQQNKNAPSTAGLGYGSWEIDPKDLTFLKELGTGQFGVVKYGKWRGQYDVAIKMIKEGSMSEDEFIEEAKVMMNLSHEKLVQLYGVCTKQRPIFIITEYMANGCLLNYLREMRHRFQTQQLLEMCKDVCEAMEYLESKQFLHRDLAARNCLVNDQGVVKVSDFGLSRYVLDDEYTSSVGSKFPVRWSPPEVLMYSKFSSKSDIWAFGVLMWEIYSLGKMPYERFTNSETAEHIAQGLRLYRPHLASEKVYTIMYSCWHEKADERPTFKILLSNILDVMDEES
Experimental: The percentage of pre-study BTK protein level was determined in cryopreserved B cells by flow cytometry analysis of Mean Fluorescence Intensity.

B cell receptor (BCR) = test: Ex vivo anti-IgM induced CD86 and CD69 expression on splenocyte B cells after oral dosing of mice; format: in vivo; details: Mus musculus, single oral 25 mg/kg, 3-24 hours, read-out: CD86 % inhibition over the entire time course
[3] = 1 mg/kg PO QD, term animals only
[4] = 5 mg/kg PO QD, term animals only
[5] = 25 mg/kg PO QD, term animals only

## CC#CC(=O)N1CCC[C@H]1c1nc(-c2ccc(C(=O)Nc3ccccn3)cc2)c2c(N)nccn12 [Formula (II), (S)-4-(8-amino-3-(1-(but-2-ynoyl)pyrrolidin-2-yl)imidazo[1,5-a]pyrazin-1-yl)-N-(pyridin-2-yl)benzamide]
[1]; 1 mg/kg PO QD
  Percent Survival: 100%
[1]; 1 mg/kg PO QD, All Animals
  Histopathology Glomerulus Diameter: *87.78 (3.82)
  Histopathology Summed Score: 7.70 (1.07)
  Kidney (paired) Weight (g): 0.576 (0.03) g
[1]; 1 mg/kg PO QD, Term Animals
  Change in Body Weight (g) wk 1-12: 8.10 (0.66) g
  Histopathology Glomerulus Diameter: 87.78 (3.82)
  Histopathology Summed Score: 7.70 (1.07)
  Kidney (paired) Weight (g): 0.576 (0.03) g
[1]; 1 mg/kg PO QD, all animals
  glomerulus diameter, reduction vs Vehicle Disease Controls: 43%
  percent of glomeruli with crescents, reduction: 97%
  serum clinical chemistries vs Vehicle Disease Controls: significantly increased albumin (ALB), glucose (GLU), and sodium/potassium ratio (Na/K) and significantly reduced blood urea nitrogen (BUN), BUN/creatinine, phosphorus (P), potassium (K), cholesterol (CHOL), and amylase (AMY)
[1]; [3]
  percent of glomeruli with crescents, reduction: 90%
  serum clinical chemistries vs Vehicle Disease Controls: significantly reduced BUN and BUN/creatinine
[1]; 5 mg/kg PO QD
  Percent Survival: 90%
  mice that died or were sacrificed moribund prior to study termination: 1 of 10
  absolute kidney weights, reduction vs Vehicle Disease Controls: 16%
  absolute mesenteric lymph node weights, reduction vs Vehicle Disease Controls: 52%
[1]; 5 mg/kg PO QD, All Animals
  Histopathology Glomerulus Diameter: *80.53 (5.64)
  Histopathology Interstitial Inflammation: 1.98 (0.29)
  Histopathology Summed Score: *5.60 (0.98)
  Kidney (paired) Weight (g): 0.544 (0.02) g
[1]; 5 mg/kg PO QD, Term Animals
  Change in Body Weight (g) wk 1-12: 7.01 (0.67) g
  Histopathology Glomerulus Diameter: *80.17 (6.29)
  Histopathology Interstitial Inflammation: 1.97 (0.33)
  Histopathology Summed Score: *5.50 (1.08)
  Kidney (paired) Weight (g): *0.531 (0.02) g
[1]; 5 mg/kg PO QD, all animals
  glomerulus diameter, reduction: 60%
  glomerulus score, reduction: 58%
  percent of glomeruli with crescents, reduction: 99%
  protein cast score, reduction: 92%
  serum clinical chemistries vs Vehicle Disease Controls: significantly increased ALB, GLU, calcium (CA), and Na/K and significantly reduced BUN, BUN/creatinine, K, CHOL, and AMY
  summed histopathology scores, reduction: 63%
  vasculitis, reduction: 52%
[1]; [4]
  glomerulus diameter, reduction: 46%
  percent of glomeruli with crescents, reduction: 98%
  protein cast score, reduction: 90%
  serum clinical chemistries vs Vehicle Disease Controls: significantly increased ALB, albumin/globulin ratio (A/G), GLU and Na/K and significantly reduced BUN, BUN/creatinine, and K
  summed histopathology scores, reduction: 54%
[1]; 25 mg/kg PO QD
  Percent Survival: 100%
  absolute kidney weights, reduction vs Vehicle Disease Controls: 19%
  absolute mesenteric lymph node weights, reduction vs Vehicle Disease Controls: 49%
[1]; 25 mg/kg PO QD, All Animals
  Histopathology Glomerulus Diameter: *74.78 (1.62)
  Histopathology Interstitial Inflammation: *1.53 (0.15)
  Histopathology Summed Score: *3.88 (0.34)
  Kidney (paired) Weight (g): 0.511 (0.01) g
[1]; 25 mg/kg PO QD, Term Animals
  Change in Body Weight (g) wk 1-12: 6.90 (0.56) g
  Histopathology Glomerulus Diameter: *74.78 (1.62)
  Histopathology Interstitial Inflammation: *1.53 (0.15)
  Histopathology Summed Score: *3.88 (0.34)
  Kidney (paired) Weight (g): *0.511 (0.01) g
[1]; 25 mg/kg PO QD, all animals
  glomerulus crescent score, reduction: 100%
  glomerulus diameter, reduction: 73%
  glomerulus score, reduction: 76%
  interstitial inflammation, reduction: 59%
  percent of glomeruli with crescents, reduction: 100%
  protein cast score, reduction: 98%
  serum clinical chemistries vs Vehicle Disease Controls: significantly increased ALB, GLU, calcium (CA), and Na/K and significantly reduced BUN, BUN/creatinine, K, CHOL, and AMY
  summed histopathology scores, reduction: 75%
  vasculitis, reduction: 52%
[1]; 25 mg/kg PO QD, all animals, mouse age 14-15 and 21-22
  urine protein scores vs Vehicle Disease Controls: significantly reduced
[1]; [5]
  glomerulus crescent score, reduction: 100%
  glomerulus diameters, reduction: 63%
  glomerulus score, reduction: 72%
  interstitial inflammation, reduction: 51%
  percent of glomeruli with crescents, reduction: 100%
  protein cast score, reduction: 97%
  serum clinical chemistries vs Vehicle Disease Controls: significantly increased ALB and CA and significantly reduced BUN and BUN/creatinine
  summed histopathology scores, reduction: 68%
  vasculitis, reduction: 47%
[1]; 25 mg/kg PO QD, term animals only, mouse age 22
  urine protein scores vs Vehicle Disease Controls: significantly reduced
[1]; 1, 5 or 25 mg/kg PO QD
  anti-dsDNA IgG levels vs Vehicle Disease Controls: not significantly affected
  body weight change vs Vehicle Disease Controls: did not differ significantly
  cumulative lymph node weights vs Vehicle Disease Controls: did not differ significantly
  lymphadenopathy scores vs Vehicle Disease Controls: not significantly affected
  skin lesion scores vs Vehicle Disease Controls: not significantly affected
  spleen weights vs Vehicle Disease Controls: did not differ significantly
[2]
  anti-KLH IgM and IgG production: significant pharmacological effects on the magnitude of IgM and IgG production
BTK; 15 mg QD x 7 days, after 48 hours (between Day 2 and Day 3)
  intracellular total BTK protein level in B lymphocytes: Decreased BTK levels; also recorded: decrease
BTK; 15 mg QD, after the initial dose
  intracellular total BTK protein level in B lymphocytes: increased
B cell receptor (BCR)
  inhibition at 25 mg/kg: 67.9%
